Assay results from patent publication US9686984B2, “Macrocyclic picolinamides as fungicides” (DOW AGROSCIENCES LLC, priority 2014, dated 2017).

Columns and labels:
Assay type in all cases: in vivo
Conditions in all cases: 100 ppm, 1 Day Protectant
Leptosphaeria nodorum = assay: Wheat Glume Blotch (LEPTNO) disease control
Method: Technical grades of materials were dissolved in acetone, which were then mixed with nine volumes of water containing 110 ppm Triton X-100. The fungicide solutions were applied onto wheat seedlings using an automated booth sprayer to run-off. All sprayed plants were allowed to air dry prior to further handling. All fungicides were evaluated using the aforementioned method for their activity vs. all target diseases, unless stated otherwise. Wheat leaf blotch and brown rust activity were also evaluated using track spray applications, in which case the fungicides were formulated as EC formulations, containing 0.1% Trycol 5941 in the spray solutions. Wheat plants (variety Yuma) were grown from seed in a greenhouse in 50% mineral soil/50% soil-less Metro mix until the first leaf was fully emerged, with 7-10 seedlings per pot. These plants were inoculated with an aqueous spore suspension of Septoria tritici either prior to or after fungicide treatments. After inoculation the plants were kept in 100% relative humidity (one day in a dark dew chamber followed by two to three days in a lighted dew chamber at 20° C.) to permit spores to germinate and infect the leaf. The plants were then transferred to a greenhouse set at 20° C. for disease to develop. When disease symptoms were fully expressed on the 1st leaves of untreated plants, infection levels were assessed on a scale of 0 to 100 percent disease severity. Percent disease control was calculated using the ratio of disease severity on treated plants relative to untreated plants. Example C: Evaluation of Fungicidal Activity: Wheat Glume Blotch (Leptosphaeria nodorum; Bayer code […]) Wheat plants (variety Yuma) were grown from seed in a greenhouse in 50% mineral soil/50% soil-less Metro mix until the first leaf was fully emerged, with 7-10 seedlings per pot. These plants were inoculated with an aqueous spore suspension of Leptosphaeria nodorum 24 hr after fungicide treatments. […]

Cercospora beticola = assay: Leaf Spot of Sugar Beets (CERCBE) disease control
Method: Technical grades of materials were dissolved in acetone, which were then mixed with nine volumes of water containing 110 ppm Triton X-100. The fungicide solutions were applied onto wheat seedlings using an automated booth sprayer to run-off. All sprayed plants were allowed to air dry prior to further handling. All fungicides were evaluated using the aforementioned method for their activity vs. all target diseases, unless stated otherwise. Wheat leaf blotch and brown rust activity were also evaluated using track spray applications, in which case the fungicides were formulated as EC formulations, containing 0.1% Trycol 5941 in the spray solutions. Wheat plants (variety Yuma) were grown from seed in a greenhouse in 50% mineral soil/50% soil-less Metro mix until the first leaf was fully emerged, with 7-10 seedlings per pot. These plants were inoculated with an aqueous spore suspension of Septoria tritici either prior to or after fungicide treatments. After inoculation the plants were kept in 100% relative humidity (one day in a dark dew chamber followed by two to three days in a lighted dew chamber at 20° C.) to permit spores to germinate and infect the leaf. The plants were then transferred to a greenhouse set at 20° C. for disease to develop. When disease symptoms were fully expressed on the 1st leaves of untreated plants, infection levels were assessed on a scale of 0 to 100 percent disease severity. Percent disease control was calculated using the ratio of disease severity on treated plants relative to untreated plants. Example G: Evaluation of Fungicidal Activity: Leaf Spot of Sugar Beets (Cercospora Beticola; Bayer Code CERCBE) Sugar beet plants (variety HH88) were grown in soil-less Metro mix and trimmed regularly to maintain a uniform plant size prior to test. Plants were inoculated with a spore suspension 24 hr after fungicide treatments. Inoculated plants were kept in a dew chamber at 22° C. for 48 hr then incubated in a greenhouse set at 24° C. under a clear plastic hood with bottom ventilation until disease symptoms were fully expressed. […]

[1] = test system: Blumeria graminis f. sp. hordei; assay: Barley Powdery Mildew (ERYSGH) disease control
Method: Technical grades of materials were dissolved in acetone, which were then mixed with nine volumes of water containing 110 ppm Triton X-100. The fungicide solutions were applied onto wheat seedlings using an automated booth sprayer to run-off. All sprayed plants were allowed to air dry prior to further handling. All fungicides were evaluated using the aforementioned method for their activity vs. all target diseases, unless stated otherwise. Wheat leaf blotch and brown rust activity were also evaluated using track spray applications, in which case the fungicides were formulated as EC formulations, containing 0.1% Trycol 5941 in the spray solutions. Wheat plants (variety Yuma) were grown from seed in a greenhouse in 50% mineral soil/50% soil-less Metro mix until the first leaf was fully emerged, with 7-10 seedlings per pot. These plants were inoculated with an aqueous spore suspension of Septoria tritici either prior to or after fungicide treatments. After inoculation the plants were kept in 100% relative humidity (one day in a dark dew chamber followed by two to three days in a lighted dew chamber at 20° C.) to permit spores to germinate and infect the leaf. The plants were then transferred to a greenhouse set at 20° C. for disease to develop. When disease symptoms were fully expressed on the 1st leaves of untreated plants, infection levels were assessed on a scale of 0 to 100 percent disease severity. Percent disease control was calculated using the ratio of disease severity on treated plants relative to untreated plants. Example J: Evaluation of Fungicidal Activity: Barley Powdery Mildew (Blumeria graminis f. sp. hordei; Synonym: Erysiphe graminis f. sp. hordei; Bayer Code […]) Barley seedlings (variety Harrington) were propagated in soil-less Metro mix, with each pot having 8 to 12 plants, and used in the test when first leaf was fully emerged. Test plants were inoculated by dusting with infected stock plants 24 hr after fungicide treatments. After inoculation the plants were kept in a greenhouse set at 20° C. for disease to develop. […]

`CCCC[C@H]1OCC[C@H](NC(=O)c2nccc(OC)c2OC(C)=O)C(=O)O[C@@H](C)[C@@H]1Cc1ccccc1` [Compound 2] was tested, and the “LEPTNO disease control, 1DP” value (Leptosphaeria nodorum) was “A (>70)”, the “CERCBE disease control, 1DP” value (Cercospora beticola) was “A (>70)” and the “ERYSGH disease control, 1DP” value [1] was “B (≦70)”.

For `COc1ccnc(C(=O)N[C@H]2CCO[C@H](Cc3ccccc3)[C@@H](Cc3ccccc3)[C@H](C)OC2=O)c1OC(C)=O` [Compound 3], the “LEPTNO disease control, 1DP” value (Leptosphaeria nodorum) was “A (>70)”, the “CERCBE disease control, 1DP” value (Cercospora beticola) was “A (>70)” and the “ERYSGH disease control, 1DP” value [1] was “B (≦70)”.

In the case of `CCC[C@H]1OCC[C@H](NC(=O)c2nccc(OC)c2OCOC(C)=O)C(=O)O[C@@H](C)[C@@H]1Cc1ccccc1` [Compound 17], the “LEPTNO disease control, 1DP” value (Leptosphaeria nodorum) is reported as “A (>70)”, the “CERCBE disease control, 1DP” value (Cercospora beticola) is reported as “A (>70)” and the “ERYSGH disease control, 1DP” value [1] is reported as “B (≦70)”.
